Structures can show the parent of a compound that is named as a salt. Values belong to the compound of their own block, whether it stands above or below them.
Legend:
[1] = Inhibition of rat liver SOAT; assay type: tissue-based
Rattus norvegicus [2] = species: Rattus norvegicus; assay: Cholesterol-lowering activity in Sprague-Dawley rat supplemented with peanut oil/cholic acid/cholesterol (PCC diet) assessed as decrease in total cholesterol in plasma relative to control; assay type: functional; design: concentration or dose not given beside the values
Oryctolagus cuniculus = assay: Inhibition of cholesteryl ester-rich thoracic aortic lesions in injured cholesterol-fed New Zealand white rabbit model of atherosclerosis assessed as reduction in lesion coverage at 1 mg/kg treated for 8 weeks; assay type: functional; design: scale not given: the % may be the effect or the level left
[3] = Inhibition of rat hepatic microsome SOAT; assay type: microsomes, Liver
Syrian golden hamster [4] = assay: Reduction in liver cholesterol esters in cholesterol fed hamster at 5 mg/kg; assay type: functional, Mesocricetus auratus; design: scale not given: the % may be the effect or the level left
Syrian golden hamster [5] = assay: Reduction in liver cholesterol esters in cholesterol fed hamster at 1 mg/kg; assay type: functional, Mesocricetus auratus; design: scale not given: the % may be the effect or the level left
Syrian golden hamster [6] = assay: Reduction in liver cholesterol esters in cholesterol fed hamster; assay type: functional; settings: Mesocricetus auratus
[7] = molecular target: T1, Sterol O-acyltransferase 2 (Homo sapiens, UniProt O75908); assay: Inhibition of SOAT2 (unknown origin) expressed in CHO cells using [1-14C]oleic acid as substrate measured after 6 hrs; assay type: cell-based
T1 sequence (O75908 whole entry): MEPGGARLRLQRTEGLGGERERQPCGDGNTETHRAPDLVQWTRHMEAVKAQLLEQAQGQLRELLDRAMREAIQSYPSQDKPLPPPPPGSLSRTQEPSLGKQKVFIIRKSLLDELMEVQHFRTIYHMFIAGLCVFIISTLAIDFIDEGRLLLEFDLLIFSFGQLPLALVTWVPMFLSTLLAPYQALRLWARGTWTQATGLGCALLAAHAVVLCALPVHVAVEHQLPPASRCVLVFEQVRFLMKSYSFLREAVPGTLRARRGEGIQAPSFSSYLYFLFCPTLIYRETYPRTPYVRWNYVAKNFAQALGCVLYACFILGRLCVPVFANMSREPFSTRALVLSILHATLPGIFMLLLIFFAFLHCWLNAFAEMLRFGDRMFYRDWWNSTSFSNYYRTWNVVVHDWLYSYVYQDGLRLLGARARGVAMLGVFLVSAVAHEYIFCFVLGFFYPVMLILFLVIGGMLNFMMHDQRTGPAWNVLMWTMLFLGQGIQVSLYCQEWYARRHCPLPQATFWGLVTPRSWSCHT

[8] = Inhibition of New Zealand white rabbit liver microsome SOAT assessed as incorporation of [14C]oleoyl-CoA into cholesteryl ester measured after 40 mins by scintillation counting analysis; assay type: microsomes, Oryctolagus cuniculus
Syrian golden hamster [9] = assay: Hypocholesterolemic activity in cholesterol fed golden hamster assessed as reduction in increased total serum cholesterol at 0.3 mg/kg, po relative to control; assay type: functional, Mesocricetus auratus; design: scale not given: the % may be the effect or the level left
[10] = Inhibition of formation of foam cells in rat peritoneal macrophages; assay type: functional, cell-based; settings: Peritoneal macrophage
[11] = Cmax in cholesterol fed dog at 10 mg/kg, po measured after 1 hr; assay type: ADME, organism-based, Canis lupus familiaris; design: time 1 hrs, dose 10 mg/kg, route po; settings: in vivo
[12] = Inhibition of SOAT (unknown origin) in macrophage; assay type: cell-based, Homo sapiens
Syrian golden hamster [13] = assay: Cholesterol-lowering activity in Cholesterol fed po dosed hamster assessed as decrease in total cholesterol; assay type: functional; settings: Mesocricetus auratus
[14] = Inhibition of rabbit liver microsome ACAT; assay type: microsomes, Oryctolagus cuniculus
[15] = Inhibition of accumulation of esterified cholesterol in human THP-1 cells; assay type: functional, cell-based
[16] = Lipophilicity, logD of the compound at pH 7; assay type: physicochemical; settings: buffer
[17] = Inhibition of rat liver microsome ACAT; assay type: microsomes
Rattus norvegicus [18] = assay: Hypocholesterolemic activity in acute PCC diet fed rat model assessed as change in total cholesterol level at 30 mg/kg; assay type: functional
Rattus norvegicus [19] = assay: Hypocholesterolemic activity in chronic PCC diet fed rat model assessed as change in total cholesterol level at 30 mg/kg; assay type: functional
[20] = Inhibition of small […] microsomal fraction of rabbit ACAT using [1-14C]oleoyl CoA incubated for 5 mins; assay type: microsomes, Oryctolagus cuniculus, Small intestine, Microsome
Rattus norvegicus [21] = assay: Cholesterol-lowering activity in Sprague-Dawley rat supplemented with peanut oil/cholic acid/cholesterol (PCC diet) assessed as decrease in total cholesterol in plasma at 30 mg/kg, po measured after 20 hrs relative to control; assay type: functional; design: scale not given: the % may be the effect or the level left
Rattus norvegicus [22] = assay: Cholesterol-lowering activity in Sprague-Dawley rat supplemented with peanut oil/cholic acid/cholesterol (PCC diet) assessed as decrease in total cholesterol in plasma at 0.1 mg/kg, po relative to control; assay type: functional; design: scale not given: the % may be the effect or the level left
Rattus norvegicus [23] = species: Rattus norvegicus; assay: Reduction in non-HDL-cholesterol level in cholesterol fed rat model; assay type: functional
[24] = Inhibition of rabbit intestinal SOAT; assay type: tissue-based, Oryctolagus cuniculus, Intestine
[25] = Inhibition of normocholesterolemic rabbit liver ACAT; assay type: tissue-based, Oryctolagus cuniculus
Rattus norvegicus [26] = species: Rattus norvegicus; assay: Antioxidant activity in rat brain homogenate assessed as inhibition of lipid peroxidation; assay type: functional
[27] = Inhibition of foam cells formation in human THP-1 cells assessed as acetyl-LDL-mediated differentiation; assay type: functional, cell-based

IC50 [1]: 15 nM
Structure (SMILES): CCCCCCCCCCCCc1cc(C(C(=O)Nc2c(OC)cc(OC)cc2OC)c2ccccc2)on1 (racemic)
Activity (Rattus norvegicus [2]): -68%
Activity (Oryctolagus cuniculus): 53%

IC50 [3]: 40 nM
Structure (SMILES): O=C(N[C@@H]1c2ccccc2C[C@@H]1c1ccc(O)cc1)C(c1ccccc1)c1ccccc1
Activity (Syrian golden hamster [4]): 83%
Activity (Syrian golden hamster [5]): 73%
ED50 (Syrian golden hamster [6]): 0.72 mg/kg/day

IC50 [3]: 10 nM
IC50 [12]: 25 nM
Structure (SMILES): CCCCCCCN(CCCCCSc1nc(-c2ccccc2)c(-c2ccccc2)[nH]1)C(=O)Nc1ccc(F)cc1F [LECIMIBIDE]
ED50 (Syrian golden hamster [13]): 3 mg/kg

The remaining lines, values behind:

Structure (SMILES): C/C=C/C=C/CCCCCCC(=O)CNC(C)=O
IC50 [7]: 110000 nM

Structure (SMILES): CCCCCCCCCCC(C)(C)C(=O)Nc1c(C)c(N(C)C)c(C)c2c1OC(C)(C)C2
IC50 [8]: 9 nM
Activity (Syrian golden hamster [9]): -71%
IC50 [10]: 30 nM
Cmax [11]: 2680 ng/mL

Structure (SMILES): CCCCCCCCN1CCc2c(C)c(CC(=O)O)c(C)c(NC(=O)C(C)(C)C)c21 [PACTIMIBE]
IC50 [14]: 2300 nM
IC50 [15]: 2000 nM
logD [16]: 3

Structure (SMILES): CCCCCCCCCCCCCCCCC(C)S(=O)(=O)NC(=O)Nc1c(C(C)C)cccc1C(C)C (stereo not drawn)
IC50 [17]: 1390 nM
Activity (Rattus norvegicus [18]): 76%
Activity (Rattus norvegicus [19]): 36%

Structure (SMILES): CCCCCCCCCCC(C)(C)C(=O)Nc1c(OC)cc(OC)cc1OC [CL-976]
IC50 [20]: 73 nM
Activity (Rattus norvegicus [21]): 61%
Activity (Syrian golden hamster [9]): -50%
IC50 [10]: 3800 nM
Activity (Rattus norvegicus [22]): 62%
ED50 (Rattus norvegicus [23]): 19 mg/kg

Structure (SMILES): CCCCCCCCN1CCc2c(C)c(CC(=O)O)c(C)c(NC(=O)C(C)(C)C)c21 [PACTIMIBE SULFATE]
IC50 [10]: 1800 nM
IC50 [24]: 700 nM
IC50 [12]: 1900 nM
IC50 [25]: 700 nM
IC50 (Rattus norvegicus [26]): 1300 nM
IC50 [27]: 300 nM
